# Measured values from patent publication US9593146B2, “CD44v6-derived peptides for treating metastasizing cancer” (AMCURE GMBH, priority 2012, dated 2017).
# Tests used:
# VEGFR-2 = assay: VEGF-A165 induced activation of VEGFR-2 and Erk in endothelial cells; format: cell-based, human; details: HUVEC, HAOEC and HCMEC
# Protocol: FIG. 13: Activation of VEGFR-2 and signal transduction induced by VEGF-A165 depends on CD44v6. Different ECs (HUVEC, HAOEC and HCMEC) were serum starved and incubated with several reagents (αCD44v6, v6 14mer and the controls IgG and ctrl pep). The cells were then induced with VEGF-A165 and lysed. The cell lysates were loaded on SDS-PAGE and subjected to Western blot analysis. Activation of the receptor tyrosine kinase VEGFR-2 and of its downstream target Erk was detected by means of antibodies that detect phosphorylated forms of VEGFR-2 and Erk. The loading control was performed with antibodies recognising total VEGFR-2 and Erk levels. The numbers indicate the fold induction as calculated with the computer programme ImageJ.
# In order investigate if an isoform of CD44 is necessary for VEGFR-2 activation, the three tools inhibiting CD44v6 activity were used in an experiment where VEGFR-2 was activated by VEGF-A165. As expected all ECs responded to VEGF-A165 treatment with VEGFR-2 phosphorylation and signal transduction to Erk. […] Thus CD44v6 is also necessary for a functional VEGF-A165/VEGFR-2 system in these cells.
# ErbB receptors = assay: ErbB ligand induced Erk-kinase phosphorylation in HT29 cells; format: cell-based, human; details: HT29, 100 ng/ml peptide 5 min, 20 ng/ml ligand
# Protocol: FIG. 15: In contrast to EGF and ER, induction of the ErbB-receptors via TGF-α, BC, Her, HB-EGF or AR is completely independent of CD44v6. Serum-starved HT29 cells were pre-incubated for 5 min with 100 ng/ml of a CD44v6-specific peptide (human v6 14mer) or a control peptide. Afterwards the cells were induced with 20 ng/ml of various ErbB ligands as indicated. The cell lysates were resolved by SDS-PAGE. Western-blotting was used to detect ErbB ligands-induced Erk-kinase phopshorylation.
# For this purpose HT29 cells were serum-starved for 24 hours and pre-treated with the v6-specific or a control peptide. They were then induced with the indicated ErbB ligands. Erk-kinase phosphorylation was used as a read-out for receptor activation. All ligands could activate the Erk-kinase. […] These ligands are independent of CD44v6 for their induction of the ErbB receptors. This is especially striking, since EGF and TGF-α address the same receptor pairs (ErbB1/1 or ErbB1/2).
sequence,measurement,setting,value
"KEQWFGNRWHEGYR [human 14mer, human CD44v6 14mer peptide]",VEGFR-2 activation and downstream signaling to Erk induced by VEGF-A165,VEGFR-2,blocked VEGFR-2 activation and downstream signaling to Erk
same,"AR, BC, HB-EGF and TGF-α-induced activation of the ErbB receptors",ErbB receptors,could not be inhibited
same,EGF- and ER-dependent Erk phosphorylation,ErbB receptors,inhibited
